{"source": "patent US20220296866A1", "about": "“METHODS, DEVICES AND COMPOSITIONS FOR LOCAL DELIVERY” (POLY-MED, INC., priority 2019, published 2022)", "key": {"[1]": {"assay": "In vitro drug release evaluation of Mitomycin C-eluting devices in artificial urine", "type": "physicochemical", "experimental": "Devices prepared from earlier examples were characterized for drug release profile in artificial urine to predict in vivo behavior in a human bladder. First, artificial urine was prepared according to ASTM F1828, with a modified buffer. Drug-containing samples were placed in individual 20 mL glass vials and 15 mL artificial urine added to cover the sample. This volume of artificial urine was sufficiently above the Mitomycin C solubility limit for each sample so as not to interfere with release analysis. Filled glass vials were placed in a 37° C. incubator on a 1 Hz orbital bed. As predetermined time points, a total changeover of artificial urine was performed, with the exchanged urine analyzed by HPLC to determine total release of Mitomycin C per time period.\nHPLC analysis was performed using a Waters ACQUITY ArcHPLC with C18 column using an isocratic method with 71:29 water:methanol mobile phase. Peaks were compared against a standard curve to determine concentration in the sample, and calculated to total percentage release based on fluid volume and loading of Mitomycin C in the sample. […] A secondary release of drug is anticipated as the OC9 and SVG12 materials experience degradation."}, "[2]": {"assay": "Stability of Mitomycin C in PDLG film (colour change)", "type": "physicochemical", "conditions": "evidenced by a change in color from purple to tan", "experimental": "SVG12 (Poly-Med, Inc.) and PDLG (Purasorb PDLG 7507, Corbion) were separately dissolved in chloroform, each at 15% concentration (wt/vol %). Solutions were divided to create different drug-loading solutions according to the associated table. In short, lidocaine (Sigma Aldrich) was added to a solution of SVG12 at a concentration of 134 mg drug per 1 gram of SVG12. Dexamethasone was added to a separate solution of PDLG at a concentration of 29 mg drug per 1 gram of PDLG. Mitomycin C was added to a separate solution of PDLG at a concentration of 6.8 mg drug per 1 gram of PDLG. All solutions were held at room temperature on a roller until completely dissolved. The solutions were cast into thin films using a 25-mil film casting blade and allowed to dry.\nDrug-loaded films were cut into rectangles and placed on SVG12-only films. In the case of the dexamethasone- and lidocaine-loaded sample, the cut films were stacked one on top of the other. In the case of mytomycin C-loaded films, 4 drug-loaded films were stacked one on top of the other to increase total delivery payload. On top of the drug-eluting film, a separate SVG12-only film was added which was larger in size. Degradable medical devices and/or compositions were clamped between rubber films between glass plates, clamped to apply pressure, and heated at 50° C. for 3 hours to create a seal between the encapsulation films. […]"}}}
{"smiles": "CO[C@@]12[C@H](COC(N)=O)C3=C(C(=O)C(C)=C(N)C3=O)N1C[C@@H]1N[C@@H]12", "note": "[Mitomycin C]", "values": [{"measurement": "Mitomycin C release compared with the free gel", "setting": "[1]; OC9/PEG 400 gel placed in the core of the stent, 37° C.", "result": "Further attenuation"}, {"measurement": "Mitomycin C release profile after the initial release", "setting": "[1]; gel containing 2 parts OC9 and 1 part PEG 400, 37° C., after about 3 days", "result": "extended release plateau"}, {"measurement": "total percentage release of Mitomycin C", "setting": "[1]; gel containing 2 parts OC9 and 1 part PEG 400, 37° C., over about 3 days", "result": 13, "unit": "%"}, {"measurement": "stability of Mitomycin C in polymer", "setting": "[2]", "result": "poor stability"}]}
